According to patent US20240398738A1, “MANIPULATION OF THE RETINOIC ACID SIGNALING PATHWAY” (THE REGENTS OF THE UNIVERSITY OF CALIFORNIA, priority 2017, published 2024):
Entries after “also recorded” stand apart in the source; their conditions may differ.

Tests used:
Type in all cases: in vivo, mouse
RGCs in WT retina = experiment: YO-PRO-1 loading assay (dye permeability of RGCs) in WT retina after intravitreal injection
Protocol: (§1) Intravitreal Injections. Before injection, mice were anesthetized with isoflurane (2%) and their pupils were dilated with tropicamide (1%) and phenylephrine (2.5%). Proparacaine (0.5%) was used as a topical analgesic. Genteal was applied under a glass coverslip to keep the cornea lubricated. An incision was made through the sclera below the ora serrata with a 30G needle and ˜1 μl of solution was injected into the vitreous with a blunt-ended 33G Hamilton syringe. After injection, the antibiotic tobramycin (0.3%) was applied to the eye. Final drug concentrations after intravitreal injection were: all-trans retinoic acid (ATRA, 100 nM), liarozole (100 μM), diethylaminobenzaldehyde (DEAB, 20 μM), citral (50 μM), BMS-493 (500 nM), and retinaldehyde (1 μM). The above values correspond to the final concentration in the eye after injecting 1 μl of drug accounting for a 5-fold dilution. An injection of PBS including 1% DMSO was used as vehicle control.
(§2) Yo-PRO-1 Loading Assay. After dissection, retinas were cut into thirds and mounted on a windowed nitrocellulose filter paper. Retinas were treated with 200 nM Yo-PRO-1 (Life Technologies) in oxygenated ACSF for 15 minutes, followed by treatment and then treated with nuclear ID (Enzo Life Sciences) at a 1:500 dilution for 3 minutes. ACSF was perfused continuously at 3 ml/min for a period of 5 minutes to wash away excess dye. In experiments employing TNP-ATP (200 μm), the retinas was pretreated with the compound for ten minutes before beginning YO-PRO-1 treatment.
(§3) Image analysis. All image analysis was performed using ImageJ or Fiji software (55,56). Yo-PRO-1 loading assay, ROIs were manually selected using the nuclear-ID channel based upon morphological characteristics. This was performed after computationally flattening the retina by performing a maximum Z projection onto a single plane. Following this, a background subtraction was performed with a rolling radius of 50 pixels. Cells identified as vascular endothelial cells or pericytes were not included in the analysis. This was confirmed using transillumination. A threshold for YO-PRO-1 loading was established by measuring the level of autofluorescence of untreated retinas in each channel and finding a baseline value with +2SD being the threshold for a YO-PRO-1 positive cell. Nuclear-ID was used to count the total number of cells within a field of view. The percentage of cells above the threshold was then calculated for comparison. For analysis of RARE double reporter virus assay, ROIs were manually selected on the RFP channel first and then superimposed to the GFP channel. Single cell values for both RFP and GFP were filtered by using a RFP minimum threshold established in naive unlabeled retinas.
(§4) Injections. Intravitreal injections: Adult mice and rats were intravitreally injected with drugs or viruses. Before injection, animals were anesthetized with isoflurane (2%) and their pupils were dilated with tropicamide (1%) and phenylephrine (2.5%). Proparacaine (0.5%) was used as a topical analgesic. Genteal was applied under a glass coverslip to keep the cornea lubricated. An incision was made through the sclera below the ora serrata with a 30G needle. Solutions were injected into the vitreous with a blunt-ended 33G Hamilton syringe. After injection, the antibiotic tobramycin (0.3%) was applied to the eye. Final drug concentrations (after 5-fold dilution in the vitreous) were: 100 nM all-trans retinoic acid (ATRA), 100 μM liarozole (24), 20 μM diethylaminobenzaldehyde (DEAB) (28,93), 50 μM citral, 500 nM BMS 493 (85), 1 μM retinaldehyde, and vehicle comprising of 1× phosphate buffered saline (PBS) containing 1% dimethyl sulfoxide (DMSO). Intravitreal injections were performed using AAV2 serotype only. WT and rd1 mice were injected with the RAR-reporter virus or the RARDN virus, at age 1-1.5 month-old. WT and s334ter rats were injected with the RAR-reporter virus at age 3-4 month-old. Final volume of injections was 1-1.5 μL for mice and 5 μL for rats. […]

[1] = tested on: retinoic acid receptor β (RARβ); experiment: Immunolabeling of RARβ in retinal cross-sections after intravitreal injection; conditions: 5-6 days after intravitreal ATRA 100 nM versus vehicle
Protocol: The same procedure was carried out for detection of RARβ in mouse retinas following injection of vehicle or ATRA. Slides were incubated with a primary rabbit anti-RARβ antibody (ab53161, Abcam) and detected using an Alexa Fluor-488 conjugated goat anti-rabbit secondary antibody (Life Technologies). […] Retinas were collected 5-6 days following injection with vehicle, ATRA, or ATRA and Liarozole.
Imaging and Analysis. […] RARE double reporter virus in rats, RARb immunolabeling and TUNEL assay were imaged using a Laser Scanning Confocal Microscope (LSM 780 NLO, Zeiss), using Zen software and default configuration for RFP, GFP, AF488 and nuclear-ID detection.

RGCs in rd1 retina = experiment: YO-PRO-1 loading assay (dye permeability of RGCs) in rd1 retina after intravitreal injection
Protocol: as §1, §2, §3, §4

RGCs in rd10 retina = experiment: MEA recording of light-flash responses in partially degenerated rd10 retina
Protocol: as §1
Multi Electrode Array Recordings. For extracellular recordings, a flat-mounted retina was placed ganglion cell layer down onto a 60-electrode Multi-Electrode Array (MEA 1060-2-BC, Multi-Channel Systems). After mounting the retina, photoswitches were applied for 30 min, followed by a 15 min wash. BENAQ was applied at a concentration of 100 μM and QAQ at 300 μM. A solution containing a mixture of neurotransmitter receptor blockers isolated RGCs from synaptic inputs: (in μM) 10 AP4, 40 DNQX, 30 AP5, 10 SR-95531, 50 TPMPA, 10 strychnine, and 50 tubocurarine. Extracellular spikes were high-pass filtered at 200 Hz and digitized at 20 kHz and were counted when exceeding 4 SD from the mean background voltage signal. Typically, each electrode recorded spikes from one to three individual RGCs. Principal component analysis of the spike waveforms was used for sorting spikes generated by individual cells (Offline Sorter, Plexon). Stimulation light was generated from a mercury arc lamp. Unfiltered broad spectrum light was used for BENAQ-treated retinas. Narrow band optical filters (Chroma) were used to deliver alternating intervals of 380 nm and 500 nm for stimulation of QAQ-treated as described previously (5,12). The Photoswitch Index (5) (PI) was established for individual retinas in light/darkness for treatment with BENAQ or in 380 nm/500 nm light for treatment with QAQ (11,12).
Data Analysis and Statistics. Unless otherwise stated, all statistical significance (p-value) calculations were performed using the two-tailed unpaired Student's t test. Results with p<0.05 were considered significant. P-values are: *<0.05, **<0.01, ***<0.001. Pairwise comparisons for non-parametric data employed the Wilcoxon Rank Sum Test or the Mann-Whitney U-test. In the case where ANOVA was employed, bootstrapping was used to account for unequal group sizes and a Tukey HSD test was employed as a post-hoc test to define which comparisons and interactions produced statistically significant changes. A modified Thompson-Tau method was employed for the detection of outliers. Non-normal data distributions were analyzed using the Kruskal-Wallis ANOVA with a Dunn's post hoc test. Sigmoidal curves were fit using OriginPro™ and the output curves for vehicle and BMS-493 are y=START+(END−START)*x^n/(k^n+x^n).
Injections. Intravitreal injections: Adult mice and rats were intravitreally injected with drugs or viruses. Before injection, animals were anesthetized with isoflurane (2%) and their pupils were dilated with tropicamide (1%) and phenylephrine (2.5%). Proparacaine (0.5%) was used as a topical analgesic. Genteal was applied under a glass coverslip to keep the cornea lubricated. An incision was made through the sclera below the ora serrata with a 30G needle. Solutions were injected into the vitreous with a blunt-ended 33G Hamilton syringe. After injection, the antibiotic tobramycin (0.3%) was applied to the eye. […]

CC1=C(/C=C/C(C)=C/C=C/C(C)=C/C(=O)O)C(C)(C)CCC1 [ATRA, all-trans retinoic acid]
increase of YO-PRO-1 labeling (RGCs in WT retina; WT mice, 3-7 days after intravitreal injection, versus vehicle): 2 fold | percentage of YO-PRO-1 positive cells (RGCs in WT retina; WT mice, intravitreal injection 3-7 days before, ATRA 100 nM, liarozole 100 μM, retinaldehyde 1 μM, DEAB 20 μM, mean±SEM): 15.80±3.10% | reversibility of ATRA-induced YO-PRO-1 loading (RGCs in WT retina; WT retina, intravitreal ATRA 100 nM): reversible; also recorded: disappeared 6 weeks after injection | Yo-Pro-1 labeling of WT-RGCs, result in words (RGCs in WT retina; WT retina, substance injected intravitreally alone): significantly increased the fraction of cells incorporating Yo-Pro-1 | RARβ level in RGCs / ganglion cell layer [1]: significant increase in RARβ; also recorded: upregulation of the β-subunit of RAR

CC1(C)CC=C(C#Cc2ccccc2)c2cc(/C=C/c3ccc(C(=O)O)cc3)ccc21 [BMS-493]
percentage of YO-PRO-1 positive cells, ATRA-induced labeling with blocker (RGCs in WT retina; WT mice injected with ATRA, TNP-ATP bath-applied ex vivo or BMS-493 co-injected, mean±SEM): 5.74±1.54% | Yo-Pro-1 labeling of rd1-RGCs, result in words (RGCs in rd1 retina; rd1, intravitreal injection, compared to vehicle-injected): reduced Yo-Pro-1 labeling in rd1 to WT levels | percentage of YO-PRO-1 positive cells (fraction of RGC nuclei labeled) (RGCs in rd1 retina; rd1 mice, intravitreal injection, measured 3-7 days after, BMS-493 500 nM, DEAB 20 uM, citral 50 uM, mean±SEM): 6.13±1.43% | I50, midpoint of the intensity vs. response curve (RGCs in rd10 retina; 6-week-old rd10, 3-7 days after intravitreal injection, vehicle eye 1.73 μW): 0.35 μW | Max, peak response (ratio of firing rate in the light:dark) (RGCs in rd10 retina; 6-week-old rd10, 3-7 days after intravitreal injection, vehicle eye 3.68): 4.77 | RGC response to a flash of dim light, in words (RGCs in rd10 retina; rd10, 50 ms flash, 0.2 μW, vehicle-treated retinas showed no response): shows a response in BMS-493 injected animals but not vehicle injected mice; also recorded: transient increase in RGC firing in response to a brief flash (50 ms) of dim light | background (spontaneous) firing in darkness, in words (RGCs in rd10 retina; rd10, BMS-493-injected eye): reduced spontaneous activity; also recorded: decrease in the background firing rate in darkness | response threshold (light intensity) (RGCs in rd10 retina; rd10, BMS-493-injected eye, vehicle-injected 0.85 μW): 0.2 μW | light response compared between drug-injected and vehicle-injected eye of each animal, in words (RGCs in rd10 retina; rd10, n=5, paired): significantly increased light response in every subject; also recorded: observed in all 5 animals tested; also recorded: enhanced the light response in all mice tested | shift of the intensity-response curve, in words (RGCs in rd10 retina; rd10, range of light intensities, versus vehicle): leftward and upward shift of fitted sigmoidal curves; also recorded: increase in sensitivity and peak response to light
